# Read-outs that look alike come from different tables or passages of the source.
# Legend:
# [1] = tested on: Amaranthus rudis (AMATA), tall water hemp; experiment: Postemergence herbicide evaluation, growth of Amaranthus rudis (AMATA); format: in vivo; details: Amaranthus tuberculatus, post-emergence, percent reduction in plant size vs untreated control, read-out: Ave. AMATA; for pest or weed control at 280 g/ha: 280 g ae/ha; for pest or weed control at 560 g/ha: 560 g ae/ha
# [2] = tested on: Ambrosia artemisiifolia (AMBEL), common ragweed; experiment: Postemergence herbicide evaluation, growth of Ambrosia artemisiifolia (AMBEL); format: in vivo; details: Ambrosia artemisiifolia, post-emergence, percent reduction in plant size vs untreated control, read-out: AVE. AMBEL; for pest or weed control at 280 g/ha: 280 g ae/ha; for pest or weed control at 560 g/ha: 560 g ae/ha
# [3] = tested on: Abutilon theophrasti (ABUTH), velvetleaf; experiment: Postemergence herbicide evaluation, growth of Abutilon theophrasti (ABUTH); format: in vivo; details: Abutilon theophrasti, post-emergence, percent reduction in plant size vs untreated control, read-out: AVE. ABUTH; for pest or weed control at 280 g/ha: 280 g ae/ha; for pest or weed control at 560 g/ha: 560 g ae/ha
# [4] = tested on: Chenopodium album (CHEAL), common lambsquarters; experiment: Postemergence herbicide evaluation, growth of Chenopodium album (CHEAL); format: in vivo; details: Chenopodium album, post-emergence, percent reduction in plant size vs untreated control, read-out: Ave. CHEAL; for pest or weed control at 280 g/ha: 280 g ae/ha; for pest or weed control at 560 g/ha: 560 g ae/ha
# [5] = tested on: glyphosate resistant Conyza canadensis (L.) (ERICA), horseweed; experiment: Postemergence herbicide evaluation, growth of Conyza canadensis (ERICA); format: in vivo; details: Erigeron canadensis, post-emergence, percent reduction in plant size vs untreated control, read-out: Ave. ERICA; for pest or weed control at 280 g/ha: 280 g ae/ha; for pest or weed control at 560 g/ha: 560 g ae/ha
# [6] = Volatility of compounds measured by thermogravimetric analysis (TGA); format: physicochemical
# [7] = tested on: weeds ABUTH, AMATA, AMBEL, CHEAL, ERICA; experiment: Postemergence herbicide evaluation, overall average % weed control across ABUTH, AMATA, AMBEL, CHEAL and ERICA; format: in vivo; details: post-emergence, average over five weeds, read-out: Overall Ave % Weed Control; for pest or weed control at 280 g/ha: 280 g ae/ha; for pest or weed control at 560 g/ha: 560 g ae/ha
Structure (SMILES),"pest or weed control at 280 g/ha ([1]; 168 h, 7 DAA) [%]","pest or weed control at 280 g/ha ([1]; 336 h, 14 DAA) [%]","pest or weed control at 560 g/ha ([1]; 336 h, 14 DAA) [%]","pest or weed control at 280 g/ha ([1]; 504 h, 21 DAA) [%]","pest or weed control at 560 g/ha ([1]; 504 h, 21 DAA) [%]","pest or weed control at 280 g/ha ([2]; 168 h, 7 DAA) [%]","pest or weed control at 280 g/ha ([2]; 336 h, 14 DAA) [%]","pest or weed control at 560 g/ha ([2]; 336 h, 14 DAA) [%]","pest or weed control at 280 g/ha ([2]; 504 h, 21 DAA) [%]","pest or weed control at 560 g/ha ([2]; 504 h, 21 DAA) [%]","pest or weed control at 280 g/ha ([3]; 168 h, 7 DAA) [%]","pest or weed control at 280 g/ha ([3]; 336 h, 14 DAA) [%]","pest or weed control at 560 g/ha ([3]; 336 h, 14 DAA) [%]","pest or weed control at 280 g/ha ([3]; 504 h, 21 DAA) [%]","pest or weed control at 560 g/ha ([3]; 504 h, 21 DAA) [%]","pest or weed control at 280 g/ha ([4]; 168 h, 7 DAA) [%]","pest or weed control at 280 g/ha ([4]; 336 h, 14 DAA) [%]","pest or weed control at 560 g/ha ([4]; 336 h, 14 DAA) [%]","pest or weed control at 280 g/ha ([4]; 504 h, 21 DAA) [%]","pest or weed control at 560 g/ha ([4]; 504 h, 21 DAA) [%]",other results
O=C(COc1ccc(Cl)cc1Cl)Oc1cccnc1 [Compound E9],77.5,85,87.5,92.5,94,80,90,97.5,100,100,57.5,75,98,88.5,99.5,75,96.5,99,90,93.5,"pest or weed control at 660 g/ha ([1]; 168 h, 660 g ae/ha, 7 DAA): 92.5%; pest or weed control at 660 g/ha ([2]; 168 h, 660 g ae/ha, 7 DAA): 87.5%; pest or weed control at 660 g/ha ([3]; 168 h, 660 g ae/ha, 7 DAA): 82.5%; pest or weed control at 660 g/ha ([4]; 168 h, 660 g ae/ha, 7 DAA): 80%; pest or weed control at 280 g/ha ([5]; 168 h, 7 DAA): 82.5%; pest or weed control at 660 g/ha ([5]; 168 h, 660 g ae/ha, 7 DAA): 77.5%; pest or weed control at 280 g/ha ([5]; 336 h, 14 DAA): 99.5%; pest or weed control at 560 g/ha ([5]; 336 h, 14 DAA): 100%; pest or weed control at 280 g/ha ([5]; 504 h, 21 DAA): 99%; pest or weed control at 560 g/ha ([5]; 504 h, 21 DAA): 100%; TGA Data (rate of weight loss, volatility) [6]: 0.6748 µg/min; pest or weed control at 280 g/ha ([7]; 168 h, 7 DAA): 74.5%; pest or weed control at 660 g/ha ([7]; 168 h, 660 g ae/ha, 7 DAA): 84%; pest or weed control at 280 g/ha ([7]; 336 h, 14 DAA): 89.2%; pest or weed control at 560 g/ha ([7]; 336 h, 14 DAA): 96.4%; pest or weed control at 280 g/ha ([7]; 504 h, 21 DAA): 94%; pest or weed control at 560 g/ha ([7]; 504 h, 21 DAA): 97.4%"
O=C(COc1ccc(Cl)cc1Cl)Oc1ccccn1 [Compound E11],70,90,93.5,67.5,90,77.5,70,90,100,100,65,85,97.5,98.5,100,77.5,97.5,98,92.5,100,"pest or weed control at 560 g/ha ([1]; 168 h, 7 DAA): 85%; pest or weed control at 560 g/ha ([2]; 168 h, 7 DAA): 80%; pest or weed control at 560 g/ha ([3]; 168 h, 7 DAA): 82.5%; pest or weed control at 560 g/ha ([4]; 168 h, 7 DAA): 80%; pest or weed control at 280 g/ha ([5]; 168 h, 7 DAA): 82.5%; pest or weed control at 560 g/ha ([5]; 168 h, 7 DAA): 85%; pest or weed control at 280 g/ha ([5]; 336 h, 14 DAA): 97.5%; pest or weed control at 560 g/ha ([5]; 336 h, 14 DAA): 90%; pest or weed control at 280 g/ha ([5]; 504 h, 21 DAA): 100%; pest or weed control at 560 g/ha ([5]; 504 h, 21 DAA): 100%; TGA Data (rate of weight loss, volatility) [6]: 0.4827 µg/min; pest or weed control at 280 g/ha ([7]; 168 h, 7 DAA): 74.5%; pest or weed control at 560 g/ha ([7]; 168 h, 7 DAA): 82.5%; pest or weed control at 280 g/ha ([7]; 336 h, 14 DAA): 88%; pest or weed control at 560 g/ha ([7]; 336 h, 14 DAA): 95.6%; pest or weed control at 280 g/ha ([7]; 504 h, 21 DAA): 91.7%; pest or weed control at 560 g/ha ([7]; 504 h, 21 DAA): 98%"
